Data: US9480750B2, “Preparation of antibody or an antibody fragment targeted immunoliposomes for systemic administration of therapeutic or diagnostic agents and uses thereof” (GEORGETOWN UNIVERSITY, priority 1999, dated 2016)
Structures can show the parent of a compound that is named as a salt. Where two headings read alike, the source gives them in different places.

Key:
[1] = system: MDA-MB-435 human melanoma cells; assay: In vitro chemosensitization, XTT; format: cell-based
[2] = administered orally; cited from earlier work
advanced NSCLC = settings: previously-treated advanced NSCLC; cited from earlier work
[3] = TARCEVA plus gemcitabine; cited from earlier work
[4] = system: normal skin fibroblast cell line H500
[5] = system: DU145 human prostate cancer cells; assay: In vitro chemosensitization, XTT; format: cell-based
[6] = cited from earlier work
cleaved caspase-3 = assay: Western blot of cleaved caspase-3 from mice serum; format: in vivo, C57BL/6 mice; settings: CDDP alone
Experimental: The blood collected from the retroorbital sinus of mice was centrifuged at 1,000 rpm for 10 minutes at room temperature after coagulation at room temperature for 1 hr. The serum was transferred to a new tube and centrifuged again at 10,000 g for 20 minutes. The supernatant serum was purified using a P-30 Micro-Bio-Spin Chromatography Column (BIORAD, Hercules, Calif.). Fifteen microliters of the fractions was loaded on a 4% to 12% gradient NuPAGE gel (Invitrogen Life Technologies, Carlsbad, Calif.) and run until the 10 kDa protein marker has run off the gel (approximately 1.5 to 2 hours). After electrophoresis, the proteins were transferred onto a Protran BA 85 nitrocellulose transfer membrane (Schleicher and Schuell, BioScience, Keene, N. H.). Finally, a Western blot analysis for cleaved caspase-3 was performed with cleaved caspase-3 (17 kD) antibody. To block nonspecific binding, the membrane was incubated at room temperature for 1 hour with 5% nonfat dry milk in 10 mM Tris-HCl buffer, pH 8.0, containing 150 mM NaCl and 0.05% Tween 20 (TBST). […] The protein was detected using goat antirabbit secondary antibody (Jackson ImmunoResearch Laboratories, West Grove, Pa.), ECL Western blotting detection reagent, and Hyperfilm ECL (Amersham, Piscataway, N.J.).

[7] = system: Panc I subcutaneous xenograft tumors; assay: In vivo chemosensitization of pancreatic xenograft; parameters: species or system mice; settings: GEMZAR alone, intraperitoneally
Experimental: To show the universality of this delivery system two different human xenograft mouse tumor models (pancreatic cancer and breast cancer) were employed. In the first (FIG. 10A) Panc I subcutaneous xenograft tumors were induced in female athymic nude (NCR nu/nu) mice. When the tumors were 100-200 mm^3 in size the animals were injected with the chemotherapeutic agent GEMZAR® (intraperitoneally) and with […]-2 prepared by the method of this invention (I.V.). […] In addition to the I.V. injections the complex described above also was intratumorally injected. One group of animals received GEMZAR® only and a second control group received GEMZAR® plus the complex carrying empty vector.

[8] = system: normal human lung fibroblasts IMR-90; assay: In vitro chemosensitization of normal cells, XTT; format: cell-based; settings: 2.5 uM Sunitinib malate, FIG. 43A-C
Experimental: The above sensitization results with B16/F10 and MDA-MB-435 were dramatically different from the results with normal human lung fibroblasts IMR-90 under the same conditions. […] The ratio of single-chain antibody fragment to liposome in each complex was 1:30 (w:w). […] After 48 hours, XTT assays were performed to assess cell viability in response to treatments. Each point represents the mean of triplicate samples±standard deviation. […] UT=untransfected.

For `COc1cc2ncnc(Nc3ccc(F)c(Cl)c3)c2cc1OCCCN1CCOCC1` [Geftinib, Gefitinib], the “sensitization to TAXOTERE” value ([1]; free Geftinib, 15 µM) is listed as “did not sensitize the cells at all”, the half-lives [2] is listed as about 46 h and the “patients achieving tumor shrinkage or stabilization of their tumor” value (advanced NSCLC) is listed as “Approximately 50%”.
For `C#Cc1cccc(Nc2ncnc3cc(OCCOC)c(OCCOC)cc23)c1` [Erlotinib, N-(3-ethynylphenyl)-6,7-bis(2-methoxyethoxy)-4-quinazolinamine], the “sensitization to TAXOTERE” value ([1]; free Erlotinib) is given as “only minimal effect”, the half-lives [2] is given as about 36 h and the Diarrhea [3] is given as 48%. For the same compound, the Rash [3] was 69%, the “dose reductions due to rash and diarrhea, each” value [3] was “two percent” and the “study discontinuation due to rash and diarrhea” value [3] was “up to one percent”. The “sensitization to Mitoxantrone, TAXOTERE or Gemcitabine” value ([4]; 7.5 uM Erlotinib, FIG. 36A-C) was “no significant increase in sensitization”, the “sensitization to Mitoxantrone” value ([5]; 3.75 uM Erlotinib) was “does not sensitize the cells to Mitoxantrone” and the “sensitization to Mitoxantrone” value ([5]; 7.5 uM Erlotinib) was “had no effect on the response to the chemotherapeutic agent”. The “incidence of ILD-like events” value ([6]; NSCLC single-agent trial) was 0.8%, the “Grade 3/4 diarrhea” value ([6]; monotherapy 150 mg, NSCLC) was 6% and the “Grade 3/4 rash” value ([6]; monotherapy 150 mg, NSCLC) was 9%. The “patients discontinuing due to rash or diarrhea, each” value ([6]; monotherapy 150 mg, NSCLC) was 1%.
With `[NH2][Pt]([NH2])([Cl])[Cl]` [CDDP, cisplatin] the “cleaved caspase-3 in serum” value (cleaved caspase-3) was “only a weak band”.
For `Nc1ccn([C@@H]2O[C@H](CO)[C@@H](O)C2(F)F)c(=O)n1` [GEMZAR®, gemcitabine HCl], the tumor growth [7] was “not able to significantly inhibit pancreatic tumor growth”.
In the case of `Cc1ccc(NC(=O)c2ccc(CN3CCN(C)CC3)cc2)cc1Nc1nccc(-c2cccnc2)n1` [Imatinib Mesylate], the “sensitization to TAXOTERE” value ([1]; 20 uM Imatinib Mesylate) is reported as “does not sensitize the cells”.
With `CCN(CC)CCNC(=O)c1c(C)[nH]c(/C=C2\C(=O)Nc3ccc(F)cc32)c1C` [Sunitinib malate] the “sensitization to Mitoxantrone, TAXOTERE or Gemcitabine” value ([4]; 2.5 or 5 uM Sunitinib malate, FIG. 42A-C) was “no significant increase in sensitization”, the “sensitization to Mitoxantrone” value ([5]; 5 μM free Sunitinib malate) was “only minimal effect on sensitization” and the “sensitization to Mitoxantrone, TAXOTERE or Gemcitabine” value [8] was “no significant increase in sensitization”.
